Reference: patent publication US20250270648A1, “MOLECULAR SIGNATURE FOR ASSESSING THE RESPONSIVENESS OF CANCER TO MITOCHONDRIA-TARGETED ANTIOXIDANTS” (UNIVERSITÉ CATHOLIQUE DE LOUVAIN, priority 2021, published 2025)

Columns and labels:
[1] = test system: MDA-MB-231 cells; test: Clonogenic assay on soft agar; assay type: cell-based, human; settings: MitoQ 250 nM
Procedure: (§1) For soft agar colony formation assays, 0.4% Seaplaque soft agar (Lonza®) was diluted with DMEM containing 10% FBS and was covered by a second 0.3% soft agar layer in which 500 MDA-MB-231 or SKBR3 cells were embedded. Complete DMEM Culture media ±MitoQ was added with 2× the final concentration. After 20 days, colonies were counted using an Axiovert™ 40 CFL microscope equipped with a MRC camera.

[2] = test system: SkBr3 cells; test: Clonogenic assay on soft agar; assay type: cell-based, human; settings: MitoQ 250 nM
Procedure: as §1

[3] = test system: MDA-MB-231 human breast cancer cells; test: Seahorse oximetry, oxygen consumption rates (OCRs); assay type: cell-based; settings: MitoQ 100 nM, 48 h
Procedure: (§2) Oxygen consumption rates (OCRs) were determined on a Seahorse XF96 bioenergetic analyzer using the XF cell Mito stress kit (Agilent Technologies®), according to manufacturer's recommendations. Briefly, MDA-MB-231 (10^4 cells/well), SkBr3 (10^4 cells/well), MDA-MB-436 (10^4 cells/well) or MCF10A (10^5 cells/well) were plated on XF96 culture plates 16 h before experiments in DMEM containing 10% FBS, and treated ±MitoQ for 48 h. On the day of analysis, culture media were replaced by DMEM containing 10 mM glucose, 2 mM glutamine, 1.85 g/L NaCl, 3 mg/L phenol red, pH 7.4. Cells were incubated for 1 h in a CO2-free incubator before analysis. Sequentially, basal OCR was acquired without treatment; ATP-linked OCR after the addition of 1 μM of ATP synthase inhibitor oligomycin; maximal OCR after mitochondrial potential disruption using 1 μM of ionophore carbonyl cyanide-4-(trifluoromethoxy) phenylhydrazone (FCCP); and non-mitochondrial OCR after the addition of 0.5 μM of Complex I inhibitor rotenone together with 0.5 μM of Complex III inhibitor antimycin A. All data were normalized by total protein content (Bio-Rad® Protein Assay; catalogue #5000006) measured right after oximetry. Mitochondrial OCRs (mtOCRs) were calculated by subtracting non-mitochondrial OCRs to the corresponding basal, maximal and ATP-linked OCRs.

[4] = test system: MDA-MB-436 breast cancer cells; test: Seahorse oximetry, oxygen consumption rates (OCRs); assay type: cell-based, human; settings: MitoQ 100 nM, 48 h
Procedure: as §2

[5] = test system: MCF10A normal breast epithelial cells; test: Seahorse oximetry, oxygen consumption rates (OCRs); assay type: cell-based, human; settings: MitoQ 100 nM, 48 h
Procedure: as §2

[6] = test system: MMTV-PyMT mice; test: Spontaneous metastatic breast cancer, FEC ±MitoQ; assay type: in vivo, mouse; settings: 6 weeks
From the text: Female FVB/N-Tg(MMTV-PyMT)634Mul/J (MMTV-PyMT) mice that express the polyomavirus middle T antigen spontaneously develop orthotropic multifocal breast adenocarcinomas that spontaneously disseminate metastases to the lungs during mouse lifetime. For spontaneous metastasis assays, female MMTV-PyMT mice (The Jackson Laboratory) were daily observed for signs of spontaneous primary tumors starting at 6 weeks of age. Once tumors became palpable, 4 additional weeks were waited to mimic a clinical time frame between first tumor signs and treatment initiation. Ten weeks-old mice with primary tumors of ˜0.8 cm in diameter received a single dose of FEC chemotherapy (100 mg/Kg 5-FU, 5 mg/Kg epirubicin, 100 mg/Kg cyclophosphamide), a clinically relevant neoadjuvant or adjuvant chemotherapeutic combination. Animals were then randomly assigned to a group receiving daily 18 mg/Kg MitoQ or an equal volume of vehicle by oral gavage. They were sacrificed at 16 weeks-old, and the lungs insufflated with Indian ink for metastasis quantification as described above. Primary tumors were collected, weighted, and processed for RT-qPCR.

[7] = test system: MDA-MB-231 human triple-negative breast cancer; test: Spontaneous metastasis and recurrence, orthotopic MDA-MB-231 model; assay type: in vivo, mouse; settings: MitoQ 20 mg/kg daily oral
Procedure: For spontaneous metastasis assays using human breast cancer cells, MDA-MB-231, SkBr3 or MDA-MB-436 cells were prepared in medium containing 10% growth factor-reduced Matrigel (Corning®, cat #734-11-01). Five weeks-old female Rj:NMRI-Foxnlnu/nu mice (Janvier) were injected with 10^6 cancer cells in 100 μL of solution in the left second mammary fat pad. After tumor take (72 h), mice were daily treated ±20 mg/Kg MitoQ by oral gavage. Tumor size was measured once per week with an electronic caliper. Four weeks after treatment initiation, primary tumors were surgically removed and processed for RT-qPCR. Tumor recurrence was monitored until recurred tumors in the vehicle group reached about […], i.e. 24 days after surgery. At this time point, mice were sacrificed and their lungs collected and fixed in PFA 4% for immunocytochemistry.
Collected lungs were processed for immunohistochemistry as previously shown. They were stained for Cytokeratin 19 (CK19) using a primary rabbit recombinant anti-CK19 antibody (Abcam®, cat #ab76539) and a secondary Envision anti-rabbit antibody coupled to HRP (Dako®, cat #K4003), and counter-stained with H&E. Images of whole lung slides were acquired on a SCN400 Slide Scanner (Leica®) and analyzed with the QuPath Software (0.1.2). Quantification was performed according to Chang and Erler (Adv Exp Med Biol, 2016; 899, 245-251), and the number of lung metastases was proportional to the positive areas of CK19 staining.

[8] = test system: MDA-MB-231 human breast cancer cells; test: Mitochondrial potential, JC-10; assay type: cell-based; settings: 48 h
Procedure: (§3) The mitochondrial potential (ΔΨ) was measured using JC-10 Mitochondrial Membrane Potential Assay Kit (Abcam®, #ab112134), according to manufacturer's recommendations. Briefly, MDA-MB-231 (10^4 cells/well), SkBr3 (10^4 cells/well), MDA-MB-436 (10^4 cells/well) or MCF10A (10^5 cells/well) cells were seeded in 96-well plates and treated for 48 h±MitoQ. Cells were then washed twice and incubated with JC-10 (1× solution) for 45 min. Fluorescence intensities were measured at 490/525 nm and […] using a SpectraMax i3 spectrophotometer equipped with a MiniMax imaging cytometer (Molecular Devices®).

[9] = test system: SkBr3 human breast cancer cells; test: Mitochondrial potential, JC-10; assay type: cell-based; settings: indicated doses of MitoQ, 48 h
Procedure: as §3

[10] = test system: murine 4T1 breast cancer cells; test: Cell viability, crystal violet; assay type: cell-based, mouse; settings: increasing doses of cisplatin ±100 nM MitoQ, 48 h
Procedure: […] The solution was carefully removed and plates were washed twice with water. After drying protected by light, cells were resuspended in 50 μl DMSO and the plates were read with a Victor X4 plate reader (Perkin®).

COC1=C(OC)C(=O)C(CCCCCCCCCC[P+](c2ccccc2)(c2ccccc2)c2ccccc2)=C(C)C1=O [MitoQ]
clonogenicity in suspension on soft agar [1]: completely abrogated
clonogenicity in suspension on soft agar [2]: completely abrogated
basal, maximal and ATP-linked oxygen consumption rates (OCRs) [3]: decreased
basal, maximal and ATP-linked OCRs [4]: repressed
OCRs [5]: reduced
number of surface lung metastases ([6]; FEC + MitoQ 18 mg/kg daily oral vs FEC + vehicle): significantly repressed
total primary tumor weight ([6]; FEC + MitoQ 18 mg/kg daily oral vs FEC + vehicle, P=0.1395): not altered
mice metastasis-free ([6]; FEC + MitoQ 18 mg/kg daily oral, all 15 FEC+ control mice had metastases): 4 of 21
primary tumor growth ([7]; P=0.3150): not significantly affected
recurrence-free survival ([7]; after surgery): significantly improved
mice with no metastasis ([7]; day +56, 9.5% in the control group): 75.0%
metastatic dissemination (lungs) ([7]; sacrifice day +56): highly significantly prevented
animals in which primary tumors relapsed after surgery ([7]; surgery day +32, 100% in the control group): 25%
mitochondrial potential (Δψ) ([8]; MitoQ 100 nM): decreased
Δψ, dose dependence ([8]; indicated doses of MitoQ): dose-dependent decreases
Δψ, dose dependence [9]: dose-dependent decreases
cancer cell killing activity, cisplatin combined with MitoQ [10]: did not interfere
